From patent US9382433B2, “Ketocoumarins as photoinitiators and photosensitizers in printing inks and coatings” (SUN CHEMICAL CORPORATION, priority 2012, dated 2016)

Legend:
[1] = Cure index (set-off cure test, sum of DL values); settings: Offset Black Ink 1; ketocoumarin 5.10% in Inventive PI Blend 1; ~32 mJ per pass, 100 m/min; lower is superior cure
Method: Offset Black Ink 1—based on a urea-formaldehyde resin, trifunctional acrylate and approximately 13% carbon black pigment.
(§1) The inks were printed onto a carton board substrate (Incada Exel coated board from Iggesund) to a density of approximately 1.8-2.0 using an IGT C1 print proofer. These were cured at 100 m/min using a Primarc UV rig fitted with a single 300 W/inch medium pressure mercury lamp, operating at half power (˜32 mJ per pass). The number of passes required to cure was measured by a “set-off cure test” which is done by visually comparing the extent to which after each pass the ink has transferred to a piece of blank substrate under 10 tons pressure for 5 seconds. […] The amount of set-off is then measured using color computer software, which determines the average color density of the set-off ink compared to a blank piece of substrate. The amount of set-off is measured as the lightness “DL” of the blank substrate vs. the transferred ink film, measured using a Spectraflash 650 spectrophotometer. The DL value is measured for each pass of the ink underneath the curing lamp, using a fresh piece of substrate for each pass until the ink is deemed fully cured and there is no visible ink transfer. The cure index is calculated by adding the individual DL values and rounding the sum to the nearest whole number. For example, if 4 passes under the curing lamp was required to cure a given ink film, and the DL values for the first 3 passes were 8.89, 5.27, 2.15 respectively, then the sum of the figures would be 16.31, which would be rounded to a cure index of 16. Note that there is no DL value taken after the 4th pass, as the ink film was determined to be fully cured by the visual absence of ink transferred during the set-off cure test. […] The tables below show the results for the evaluations.

[2] = Cure index (set-off cure test, sum of DL values); settings: Offset Black Ink 2; ketocoumarin 5.10% in Inventive PI Blend 2; ~32 mJ per pass, 100 m/min; lower is superior cure
Description: Offset Black Ink 2—based on a ketone functional resin, tri- and tetra-functional alkoxylated acrylates and approximately 14% carbon black pigment.
as §1

[3] = Cure index (set-off cure test, sum of DL values); settings: Offset Black Ink 3; ketocoumarin 6.000% in Inventive PI Blend 3; ~32 mJ per pass, 100 m/min; lower is superior cure
Description: Offset Black Ink 3—based on a ketone functional resin, tri- and tetra-functional alkoxylated acrylates and approximately 14% carbon black pigment.
as §1

[4] = Solubility by visual inspection of ink and prints; type: physicochemical; parameters: key: Good=Soluble (no solid bits in the ink and good printability); OK=Partially insoluble (some solid bits in the ink and slightly poor printability); Poor=Very noticeable insolubility (very noticeable solid bits in the ink and poor printability); settings: visual inspection of inks and prints
Method: The solubility of the materials was assessed by visual inspection of the inks and from visual inspection of the prints. Insolubility is reported as follows: Good=Soluble (no solid bits in the ink and good printability); OK=Partially insoluble (some solid bits in the ink and slightly poor printability); Poor=Very noticeable insolubility (very noticeable solid bits in the ink and poor printability).

[5] = Cure index of ink-jet magenta inks; settings: ketocoumarin 6.167% in Inventive Ink-Jet PI Blend, 84 mJ per pass, 70 m/min, rounded to nearest 0.5
Method: Magenta ink-jet inks were prepared to assess the performance of the inventive ketocoumarin materials an ink-jet ink formulation. The magenta ink formulation is based on 17.5% of a magenta pigment concentrate and a blend of difunctional monomers which includes propoxylated neopentylglycol diacrylate, dipropyleneglycol diacrylate, tripropylene glycol diacrylate (all at approximately 15%) and 2-(2-Vinyloxyethoxy)ethyl acrylate (at approximately 20%).
The inks were printed onto white PE TopTrans top-coated label substrate using a No. 2 K-Bar (red). The No. 2 K-bar gives a film thickness of about 12 μm. The inks were cured at 70 m/min using a Primarc UV rig fitted with a single 300 W/inch medium pressure mercury lamp, operating at full power (84 mJ per pass). Cure index was determined using the same cure index test described above for the black offset inks.
The cure index results in Table 12 were determined using the same test method as described for the black offset inks in Tables 7-9 with one exception; in Table 12 the cure index figures were rounded to the nearest 0.5 rather than to the nearest whole number. It should be noted that the cure index numbers are a representation of cure at a relatively low UV lamp dose compared to that used in a commercial application. A commercial application would typically use higher UV lamp dosage and all of the above formulations would perform adequately under these conditions. The experiments have been set up to highlight differences in cure and therefore have been carried out at relatively low cure dose. In the above experiments an ink with a cure index of less than 4-5 would cure adequately using commercial lamp conditions. Inks with a cure index of much lower than 4-5 are, therefore, performing very well.

| Structure (SMILES) | Solubility in Ink-Jet Magenta Ink [4] | Solubility in Offset Black Ink 1 [4] | Solubility in Offset Black Ink 2 [4] | Solubility in Offset Black Ink 3 [4] | Cure index [1] | Cure index [2] | Cure index [3] | Cure index [5] |
| --- | --- | --- | --- | --- | --- | --- | --- | --- |
| O=C(COc1ccc2cc(C(=O)c3ccccc3)c(=O)oc2c1)OCCOCCOC(=O)COc1ccc2cc(C(=O)c3ccccc3)c(=O)oc2c1 [Inventive Example 5] | Good | – | – | – | – | – | – | 9 |
| O=C(COc1ccc2cc(C(=O)c3ccccc3)c(=O)oc2c1)OCCOCCOCCOC(=O)COc1ccc2cc(C(=O)c3ccccc3)c(=O)oc2c1 [Inventive Example 11] | OK | OK | OK | OK | 53 | 23 | 42 | 1 |
| CCC(COC(=O)COc1ccc2cc(C(=O)c3ccccc3)c(=O)oc2c1)(COC(=O)COc1ccc2cc(C(=O)c3ccccc3)c(=O)oc2c1)COC(=O)COc1ccc2cc(C(=O)c3ccccc3)c(=O)oc2c1 [Inventive Example 14] | Poor | OK | OK | OK | 28 | 7 | 14 | 1 |

Now from value to compound, other results behind:

| Solubility in Ink-Jet Magenta Ink [4] | Solubility in Offset Black Ink 1 [4] | Solubility in Offset Black Ink 2 [4] | Solubility in Offset Black Ink 3 [4] | Structure (SMILES) | Cure index [1] | Cure index [2] | Cure index [3] | Cure index [5] |
| --- | --- | --- | --- | --- | --- | --- | --- | --- |
| Poor | Poor | Poor | Poor | O=C(c1ccccc1)c1cc2ccccc2oc1=O [Comparative Example 1, reference compound] | 28 | 24 | 27 | 38 |
| Poor | Poor | Poor | Poor | COc1ccc2cc(C(=O)c3ccccc3)c(=O)oc2c1 [Comparative Example 2, reference compound] | 52 | 13 | 33 | <1 |
| Poor | OK | OK | OK | CCOC(=O)COc1ccc2cc(C(=O)c3ccccc3)c(=O)oc2c1 [Inventive Example 12] | 46 | 15 | 26 | 3 |
| Poor | OK | OK | OK | CCCCCCCCCCCCOC(=O)COc1ccc2cc(C(=O)c3ccccc3)c(=O)oc2c1 [Inventive Example 16] | 52 | 31 | 56 | 5 |
